Results from ChEMBL document CHEMBL1201862, “PubChem BioAssay data set” (2004).
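48-hour exposure; five concentrations; linearly interpolated endpoints. GI50 = concentration required for 50% inhibition of growth.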 Activity calls are given as the source filed them. Rule as the data show it: active = GI50 up to about 1.1 µM and inactive = higher.

Columns and labels:
Experiment in all cases: DTP human tumour cell line panel, 48 h
A498 = system: A498
A549 = system: A549
ACHN = system: ACHN
HOP-62 = system: HOP-62
IGROV-1 = system: IGROV-1
KM12 = system: KM12
MDA-MB-435 = system: MDA-MB-435
NCI-H522 = system: NCI-H522
OVCAR-3 = system: OVCAR-3
OVCAR-5 = system: OVCAR-5
OVCAR-8 = system: OVCAR-8
RPMI-8226 = system: RPMI-8226
SF-268 = system: SF-268
SK-MEL-2 = system: SK-MEL-2
SK-OV-3 = system: SK-OV-3
SN12C = system: SN12C
SR = system: SR
HL-60 = system: HL-60
Malme-3M = system: Malme-3M

| SMILES | GI50 (A498) | GI50 (A549) | GI50 (ACHN) | GI50 (HOP-62) | GI50 (IGROV-1) | GI50 (KM12) | GI50 (MDA-MB-435) | GI50 (NCI-H522) | GI50 (OVCAR-3) | GI50 (OVCAR-5) | GI50 (OVCAR-8) | GI50 (RPMI-8226) | GI50 (SF-268) | GI50 (SK-MEL-2) | GI50 (SK-OV-3) | GI50 (SN12C) | GI50 (SR) | GI50 (HL-60) | GI50 (Malme-3M) |
| --- | --- | --- | --- | --- | --- | --- | --- | --- | --- | --- | --- | --- | --- | --- | --- | --- | --- | --- | --- |
| CC(C)(C)[Si](C)(C)OCC1OC(n2ccc(=O)[nH]c2=O)C(O[Si](C)(C)C(C)(C)C)[C@]12O[C@@H]2CO (some centres not stated) | 18.6 µM (inactive) | 10.9 µM (inactive) | 11.9 µM (inactive) | 16 µM (inactive) | 16.3 µM (inactive) | 14.8 µM (inactive) | 16 µM (inactive) | 14.1 µM (inactive) | 14.9 µM (inactive) | 17.5 µM (inactive) | 29 µM (inactive) | 55.3 µM (inactive) | 19.4 µM (inactive) | 14.7 µM (inactive) | 15.6 µM (inactive) | 15.7 µM (inactive) | 3.61 µM (inactive) | – | – |
| Nc1nc(CC2(O)CCCCC2)cc(-c2ccccc2)n1 | 33.5 µM (inactive) | 26.7 µM (inactive) | 34.4 µM (inactive) | > 49.7 µM (inactive) | 43 µM (inactive) | 23.1 µM (inactive) | – | 27.2 µM (inactive) | 25.6 µM (inactive) | 20.9 µM (inactive) | > 50.2 µM (inactive) | 23.6 µM (inactive) | > 64.4 µM (inactive) | 35.6 µM (inactive) | > 100 µM (inactive) | 20.3 µM (inactive) | 16.5 µM (inactive) | 15.6 µM (inactive) | > 10 µM (inactive) |
| CC(C)C(=O)OCC1CCCN2CCCCC12 (configuration not stated) | > 100 µM (inactive) | 74 µM (inactive) | > 100 µM (inactive) | > 100 µM (inactive) | – | > 100 µM (inactive) | > 100 µM (inactive) | – | > 100 µM (inactive) | > 100 µM (inactive) | > 100 µM (inactive) | 95.3 µM (inactive) | > 100 µM (inactive) | > 100 µM (inactive) | > 100 µM (inactive) | > 100 µM (inactive) | – | 39.8 µM (inactive) | > 100 µM (inactive) |
| CC(=O)Oc1c2c(c(O)c3ccccc13)C(n1cnc3c(ncn3C3OC(CO)C4OC(C)(C)OC43)c1=N)CCC2 (configuration not stated) | 17.3 µM (inactive) | 19.1 µM (inactive) | 16.5 µM (inactive) | 16.7 µM (inactive) | 20.2 µM (inactive) | 14.4 µM (inactive) | – | 5.87 µM (inactive) | 14.5 µM (inactive) | 21.2 µM (inactive) | 11.2 µM (inactive) | 3.1 µM (inactive) | 16.4 µM (inactive) | 15.4 µM (inactive) | 19 µM (inactive) | 18.1 µM (inactive) | – | 4.49 µM (inactive) | 11.2 µM (inactive) |
| O=C1COc2cc3c(cc2N1)SCCC(=O)N3 | > 100 µM (inactive) | > 100 µM (inactive) | – | > 100 µM (inactive) | > 100 µM (inactive) | > 100 µM (inactive) | – | > 100 µM (inactive) | > 100 µM (inactive) | – | > 100 µM (inactive) | > 100 µM (inactive) | > 100 µM (inactive) | > 100 µM (inactive) | > 100 µM (inactive) | > 100 µM (inactive) | > 100 µM (inactive) | > 100 µM (inactive) | > 100 µM (inactive) |
| CC(C#N)c1cn(S(=O)(=O)c2ccccc2)c2ccccc12 (configuration not stated) | – | 36.5 µM (inactive) | 33.3 µM (inactive) | 37.5 µM (inactive) | 78.5 µM (inactive) | 72.1 µM (inactive) | – | 27.7 µM (inactive) | 53.1 µM (inactive) | > 100 µM (inactive) | 80.7 µM (inactive) | 38.5 µM (inactive) | 82.8 µM (inactive) | 37.1 µM (inactive) | – | – | 30.8 µM (inactive) | 26 µM (inactive) | 35.7 µM (inactive) |
| Cc1ccc(C[P+]2(c3ccccc3)CCCCC2)cc1.[O-][Cl+3]([O-])([O-])[O-] | > 100 µM (inactive) | 73.5 µM (inactive) | 81.7 µM (inactive) | 99.8 µM (inactive) | 21.3 µM (inactive) | 28.5 µM (inactive) | – | 16.1 µM (inactive) | 10 µM (inactive) | 55.2 µM (inactive) | 20.6 µM (inactive) | 7.43 µM (inactive) | – | 30.9 µM (inactive) | 60.8 µM (inactive) | 37.6 µM (inactive) | 23.1 µM (inactive) | 10.8 µM (inactive) | 25.5 µM (inactive) |
| CCN(CC)CC(C)C(=O)/C=C/c1ccc(C)cc1 (configuration not stated) | 4.74 µM (inactive) | 3.77 µM (inactive) | 2.06 µM (inactive) | 18.4 µM (inactive) | 2.2 µM (inactive) | 0.502 µM (active) | – | – | 4.2 µM (inactive) | 14.8 µM (inactive) | 2.07 µM (inactive) | 1.64 µM (inactive) | 2.1 µM (inactive) | – | 17 µM (inactive) | 1.63 µM (inactive) | 2.48 µM (inactive) | 3.48 µM (inactive) | 2.81 µM (inactive) |
